Test results as given in patent US20240409557A1, “5,6-FUSED AND 6,6-FUSED BICYCLIC ALCOHOLS AND ETHERS AND COMPOSITIONS FOR USE AS 15-PROSTAGLANDIN DEHYDROGENASE MODULATORS” (AMGEN INC., priority 2023, published 2024).
pIC50: −log10 of the molar value.

Assays:
[1] = target: T1, human recombinant 15-PGDH (Homo sapiens, UniProt P15428); experiment: Recombinant 15-PGDH enzymatic inhibition assay (PGDH-Lumi, NADH signal); format: biochemical; conditions: recombinant 15-PGDH; 15 min pre-incubation, 60 min reaction with PGE2 and NAD+, NADH signal
T1 sequence (P15428 1-266): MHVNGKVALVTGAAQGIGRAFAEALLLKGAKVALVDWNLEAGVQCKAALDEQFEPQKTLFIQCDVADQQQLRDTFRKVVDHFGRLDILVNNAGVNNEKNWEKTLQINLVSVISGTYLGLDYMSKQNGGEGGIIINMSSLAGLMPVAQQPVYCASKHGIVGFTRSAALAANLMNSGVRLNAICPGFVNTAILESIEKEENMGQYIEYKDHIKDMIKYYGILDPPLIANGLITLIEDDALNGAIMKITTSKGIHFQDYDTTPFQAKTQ
In short: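 Buffer 50 mM Tris pH 7.5 with 0.01% Tween-20 and […]; compound, 22 two-fold dilutions, pre-incubated with enzyme 15 min before substrate.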

15-PGDH in A549 cells = target: T2, 15-PGDH in A549 cells (Homo sapiens, UniProt P15428); experiment: A549 cellular 15-PGDH assay (PGE2 accumulation, HTRF); format: cell-based; conditions: interleukin-stimulated, inhibitor 24 hrs, PGE2 by competitive HTRF, read-out: A549 Cell Assay IC50
T2 construct: endogenous in cells; host or cells: A549
T2 sequence (P15428 1-266): T1 sequence (P15428 1-266)
In short: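 Supernatant PGE2 was quantified by competitive HTRF, in which sample PGE2 blocks FRET between a europium cryptate-labelled antibody and labelled PGE2. It came from A549 epithelial cells induced with IL-13. IC50s were calculated from the inversely proportional signal.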

Row | Structure (SMILES) | pIC50 [1] | pIC50 (15-PGDH in A549 cells)
1 | Cn1cc2cc(-c3ccc4cc(C5(O)CC(F)(F)C5)sc4n3)cnc2n1 [Compound C5, 3,3-difluoro-1-(6-(2-methyl-2H-pyrazolo[3,4-b]pyridin-5-yl)thieno[2,3-b]pyridin-2-yl)cyclobutanol] | 9.43 | 8.77
2 | Cn1cc2cc(-c3ccc4cc(C5(O)CCC(F)(F)CC5)sc4n3)cnc2n1 [Compound C15, 4,4-difluoro-1-(6-(2-methyl-2H-pyrazolo[3,4-b]pyridin-5-yl)thieno[2,3-b]pyridin-2-yl)cyclohexanol] | 8.55 | 7.89
3 | Cn1cc2cc(-c3ccc4cc(C5(O)CCC5)sc4n3)cnc2n1 [Compound C21, 1-(6-(2-methyl-2H-pyrazolo[3,4-b]pyridin-5-yl)thieno[2,3-b]pyridin-2-yl)cyclobutanol] | 8.75 | 7.72
4 | Cn1cc2cc(-c3cc(-c4ccnn4C)c4cc(C(C)(O)C5CCC5)sc4n3)cnc2n1 (stereo not shown) [Compound C23, 1-cyclobutyl-1-(6-(2-methyl-2H-pyrazolo[3,4-b]pyridin-5-yl)-4-(1-methyl-1H-pyrazol-5-yl)thieno[2,3-b]pyridin-2-yl)ethanol] | 9.27 | 8.32
5 | Cn1cc2cc(-c3ccc4cc(C5(O)CC6(CCC6)C5)sc4n3)cnc2n1 [Compound C25, 2-(6-(2-methyl-2HI-pyrazolo[3,4-b]pyridin-5-yl)thieno[2,3-b]pyridin-2-yl)spiro[3.3]heptan-2-ol] | 9.48 | 9.85
6 | Cn1cc2cc(-c3ccc4cc(C5(O)CC(C)(C)C5)sc4n3)cnc2n1 [Compound C26, 3,3-dimethyl-1-(6-(2-methyl-2H-pyrazolo[3,4-b]pyridin-5-yl)thieno[2,3-b]pyridin-2-yl)cyclobutanol] | 9.56 | 10.22
7 | Cn1cc2cc(-c3ccc4cc(C5(O)CC6(CC(F)(F)C6)C5)sc4n3)cnc2n1 [Compound C27, 6,6-difluoro-2-(6-(2-methyl-2H-pyrazolo[3,4-b]pyridin-5-yl)thieno[2,3-b]pyridin-2-yl)spiro[3.3]heptan-2-ol] | 9.42 | 10.24
8 | Cn1cc2cc(-c3ccc4cc(C5(O)CC6(COC6)C5)sc4n3)cnc2n1 [Compound C28] | 9.33 | 9.34
9 | Cn1cc2cc(-c3ccc4cc([C@]5(O)C[C@@H](C(F)(F)F)C5)sc4n3)cnc2n1 [Compound C29C, cis-1-(6-(2-methyl-2H-pyrazolo[3,4-b]pyridin-5-yl)thieno[2,3-b]pyridin-2-yl)-3-(trifluoromethyl)cyclobutanol] | 9.52 | 10.29
10 | Cn1cc2cc(-c3ccc4cc([C@]5(O)C[C@@H](C(F)F)C5)sc4n3)cnc2n1 [Compound C30C, cis-3-(difluoromethyl)-1-(6-(2-methyl-2H-pyrazolo[3,4-b]pyridin-5-yl)thieno[2,3-b]pyridin-2-yl)cyclobutanol] | 9.56 | 9.86
11 | CO[C@H]1C[C@](O)(c2cc3ccc(-c4cnc5nn(C)cc5c4)nc3s2)C1 [Compound C31C, cis-3-methoxy-1-(6-(2-methyl-2H-pyrazolo[3,4-b]pyridin-5-yl)thieno[2,3-b]pyridin-2-yl)cyclobutanol] | 9.45 | 9.80
12 | CCn1cc2cc(-c3ccc4cc(C5(O)CC(F)(F)C5)sc4n3)cnc2n1 [Compound C32, 1-(6-(2-ethyl-2H-pyrazolo[3,4-b]pyridin-5-yl)thieno[2,3-b]pyridin-2-yl)-3,3-difluorocyclobutanol] | 9.43 | 9.59
13 | Cn1cnc2cc(-c3ccc4cc(C5(O)CC(F)(F)C5)sc4n3)cnc21 [Compound C33, 3,3-difluoro-1-(6-(3-methyl-3H-imidazo[4,5-b]pyridin-6-yl)thieno[2,3-b]pyridin-2-yl)cyclobutanol] | 8.59 | 8.97
14 | Cc1nc2ncc(-c3ccc4cc(C5(O)CC(F)(F)C5)sc4n3)cc2o1 [Compound C34, 3,3-difluoro-1-(6-(2-methyl[1,3]oxazolo[4,5-b]pyridin-6-yl)thieno[2,3-b]pyridin-2-yl)cyclobutanol] | 9.11 | 8.87
15 | Cc1nc2cc(-c3ccc4cc(C5(O)CC(F)(F)C5)sc4n3)cnc2[nH]1 [Compound C35, 3,3-difluoro-1-(6-(2-methyl-3H-imidazo[4,5-b]pyridin-6-yl)thieno[2,3-b]pyridin-2-yl)cyclobutanol] | 9.08 | 8.87
16 | OC1(c2cc3ccc(-c4cnc5[nH]ncc5c4)nc3s2)CC(F)(F)C1 [Compound C36, 3,3-difluoro-1-(6-(1H-pyrazolo[3,4-b]pyridin-5-yl)thieno[2,3-b]pyridin-2-yl)cyclobutanol] | 9.12 | 9.46
17 | Cc1cn2cc(-c3ccc4cc(C5(O)CC(F)(F)C5)sc4n3)ccc2n1 [Compound C37, 3,3-difluoro-1-(6-(2-methylimidazo[1,2-a]pyridin-6-yl)thieno[2,3-b]pyridin-2-yl)cyclobutanol] | 8.05 | 8.64
18 | Nc1ncc(-c2ccc3cc(C4(O)CC(F)(F)C4)sc3n2)cn1 [Compound C38, 1-(6-(2-amino-5-pyrimidinyl)thieno[2,3-b]pyridin-2-yl)-3,3-difluorocyclobutanol] | 8.34 | 8.43

Now from value to compound:

Row | pIC50 [1] | pIC50 (15-PGDH in A549 cells) | Structure (SMILES)
19 | 8.00 | 8.54 | Cc1nc2ccc(-c3ccc4cc(C5(O)CC(F)(F)C5)sc4n3)cc2o1 [Compound C39, 3,3-difluoro-1-(6-(2-methyl-1,3-benzoxazol-6-yl)thieno[2,3-b]pyridin-2-yl)cyclobutanol]
20 | 9.13 | 8.91 | Cn1cc2cc(-c3ccc4cc([C@]5(O)C[C@@H](F)C5)sc4n3)cnc2n1 [Compound C40C, cis-3-fluoro-1-(6-(2-methyl-2H-pyrazolo[3,4-b]pyridin-5-yl)thieno[2,3-b]pyridin-2-yl)cyclobutanol]
21 | 8.18 | 8.47 | Cn1cc2cc(-c3ccc4cc([C@]5(O)C[C@H](F)C5)sc4n3)cnc2n1 [Compound C40T, trans-3-fluoro-1-(6-(2-methyl-2H-pyrazolo[3,4-b]pyridin-5-yl)thieno[2,3-b]pyridin-2-yl)cyclobutanol]
22 | 8.91 | 8.67 | OC1(c2cc3ccc(-c4cnc5[nH]cnc5c4)nc3s2)CC(F)(F)C1 [Compound C41, 3,3-difluoro-1-(6-(3H-imidazo[4,5-b]pyridin-6-yl)thieno[2,3-b]pyridin-2-yl)cyclobutanol]
23 | 7.62 | 8.17 | OC1(c2cc3ccc(-c4ccc5[nH]ncc5c4)nc3s2)CC(F)(F)C1 [Compound C42, 3,3-difluoro-1-(6-(1H-indazol-5-yl)thieno[2,3-b]pyridin-2-yl)cyclobutanol]
24 | 8.28 | 8.20 | CNc1ncc(-c2ccc3cc(C4(O)CC(F)(F)C4)sc3n2)cn1 [Compound C43, 3,3-difluoro-1-(6-(2-(methylamino)-5-pyrimidinyl)thieno[2,3-b]pyridin-2-yl)cyclobutanol]
25 | 8.12 | 8.21 | Cc1cn2ccc(-c3ccc4cc(C5(O)CC(F)(F)C5)sc4n3)cc2n1 [Compound C44, 3,3-difluoro-1-(6-(2-methylimidazo[1,2-a]pyridin-7-yl)thieno[2,3-b]pyridin-2-yl)cyclobutanol]
26 | 8.77 | 8.87 | Cc1cn2cc(-c3ccc4cc(C5(O)CC(F)(F)C5)sc4n3)cnc2n1 [Compound C45, 3,3-difluoro-1-(6-(2-methylimidazo[1,2-a]pyrimidin-6-yl)thieno[2,3-b]pyridin-2-yl)cyclobutanol]
